The results in this text go back to PMC9896891 (International Journal of Biological Macromolecules, 2023).

The structures appear in SMILES notation. Counter-ions that a name gives are not always drawn. Like-named read-outs stand apart in the source and are kept apart here.

Assay [1] concerns SARS-CoV-2. The format is cell-based.
Assay [2] relates to SARS-CoV-2. The experiment in a line: Treatment points. The format is cell-based. As to conditions: Vero cells, 48 h.
Assay [3] deals with T1, SARS-CoV-2 Main protease (M^pro) (Severe acute respiratory syndrome coronavirus 2, UniProt P0DTD1). The assay is classed as binding.
Assay [4] has as its target T1, SARS-CoV-2 Main protease (M^pro). The experiment in a line: biochemical. The format is binding.
[5] abbreviates: screen of 156 drugs and natural compounds.
Setting [6] is: relative to M^pro alone (53.5 ± 1 °C).
The mark [7] stands for this setting: compound 8, relative to H2–2/8/9.

As usually defined, the Kd is the free concentration of one partner at which half of the binding sites on the other are occupied at equilibrium, for simple one-to-one binding. Lower therefore signals a tighter complex. Consider `COc1ccc([C@@H]2Sc3ccccc3N(CCN(C)C)C(=O)[C@@H]2OC(C)=O)cc1` [Compound 1, Diltiazem hydrochloride], for which, in the assay on SARS-CoV-2 [1] (83 μM, Vero cells), the “% Reduction in viral plaques” value is given as 81–88%. The “Therapeutic Effect, Log10 of Fold Change” value in the assay with SARS-CoV-2 [2] (42.5 μM) is recorded as 2.00; in the assay on SARS-CoV-2 [2] (83 μM) it was 2.02. Also, the “Relative STD saturation, C-4 methyl protons (H3–4)” value in assay [3] (compound 1, largest STD integral, reference) was 100%. The “Relative STD saturation, H3–28/H3–29” value in assay [3] (compound 1, relative to H3–4) was determined as 31.99%. Besides, in assay [3] (setting [5]), the “Interaction with M^pro in STD-NMR spectroscopy” value (“Interaction with M^pro” below) is recorded as “interacting”. In assay [4], this compound came in with a Kd of about 44 µM.

On to `Cc1cccc(Nc2ccccc2C(=O)O)c1C` [Compound 2, Mefenamic acid], for which the “% Reduction in viral plaques” value in the assay with SARS-CoV-2 [1] (83 μM, Vero cells) is on record as 81–88%. Also, the “Relative STD saturation, H3–16” value in assay [3] (compound 2, largest STD integral, reference) worked out at 100%. In addition, the “Relative STD saturation, H3–15” value in assay [3] (compound 2, relative to H3–16) is 90.7%. The “Interaction with M^pro” value in assay [3] (setting [5]) is on record as “interacting”. In addition, in assay [4], the Kd is about 15 µM. In assay [4] (setting [6]), the “Modulation of Tm of M^pro” value is “+2.9 °C”.

With `CCCCc1nc(Cl)c(CO)n1Cc1ccc(-c2ccccc2-c2nn[nH]n2)cc1` [Compound 3, Losartan potassium], the “% Reduction in viral plaques” value in the assay on SARS-CoV-2 [1] (83 μM, Vero cells) was determined as 54.54%. Moreover, in assay [3] (compound 3, largest STD integral, reference), the “Relative STD saturation, H2–7” value was 100%. In assay [3] (compound 3, relative to H2–7), the “Relative STD saturation, H2–8” value stood at 45.22%; the “Relative STD saturation, H2–9” value worked out at 42.15%; the “Relative STD saturation, H3–10” value turned out to be 31.49%. Also, the “Interaction with M^pro” value in assay [3] (setting [5]) is given as “interacting”. The compound further registered a Kd in assay [4] of about 64 µM.

As to `Cc1cccc(C)c1OCC(C)N` (centres unmarked) [Compound 4, Mexiletine hydrochloride], the “% Reduction in viral plaques” value with SARS-CoV-2 [1] was determined as 75.5%. Also, in assay [3], the “Interaction with M^pro” value is “interacting”; the “Relative STD saturation, H-6/H-8” value is 86.87%; the “Relative STD saturation, aromatic H-7” value stood at 100%; the “Relative STD saturation, methyl H-3” value was found to be 20%. For the same compound, in assay [4], the equilibrium dissociation constant (Kd) was about 21 µM and the “Modulation of Tm of M^pro” value is “+2.9 °C”.

As for `CC(C(=O)O)c1ccc(-c2ccccc2)c(F)c1` (centres unmarked) [Compound 7, Flurbiprofen], the “% Reduction in viral plaques” value in the assay on SARS-CoV-2 [1] (83 μM, Vero cells) is listed as 59.09%. Also, the “Relative STD saturation, methyl H-1” value in assay [3] (compound 7, highest integral, reference) worked out at 100%. The “Relative STD saturation, H-2” value in assay [3] (compound 7, relative to H-1) stood at 44.10%. For the same compound, in assay [3] (setting [5]), the “Interaction with M^pro” value is recorded as “interacting”. For the same compound, the Kd in assay [4] is about 66 µM.

As for `NC12CC3CC(CC(C3)C1)C2` [Compound 8, Amantadine hydrochloride], the “% Reduction in viral plaques” value in the assay on SARS-CoV-2 [1] (83 μM, Vero cells) was 77.27%. Moreover, the “Relative STD saturation, H2–2, H2–8, H2–9” value in assay [3] (compound 8, highest STD integral, reference) is listed as 100%. Further, in assay [3] (setting [7]), the “Relative STD saturation, H2–4, H2–6, H2–10” value was 59–64% and the “Relative STD saturation, H-3, H-5, H-7” value was 78%. In assay [3] (setting [5]), the “Interaction with M^pro” value is listed as “interacting”. Further, in assay [4] (setting [6]), the “Modulation of Tm of M^pro” value was “+2.9 °C”.

Regarding `COc1ccc2c(c1)[C@]13CCCC[C@@H]1[C@H](C2)N(C)CC3` [Compound 9, Dextromethorphan], the “% Reduction in viral plaques” value with SARS-CoV-2 [1] (83 μM, Vero cells) is 81–88%. In addition, the “Therapeutic Effect, Log10 of Fold Change” value in the assay on SARS-CoV-2 [2] (83 μM) worked out at 2.11. Further, in assay [3] (compound 9, reference proton), the “Relative STD saturation, 2H-16” value was “highest saturation”. Also, in assay [3] (compound 9, relative to 2H-16), the “Relative STD saturation, H-6” value is on record as 95%; the “Relative STD saturation, aromatic H-10” value was 70.6%; the “Relative STD saturation, methyl 3H-18” value was found to be 30.8%; the “Relative STD saturation, methyl 3H-20” value was 12.8%. Also, the “Interaction with M^pro” value in assay [3] (setting [5]) is listed as “interacting”.

Regarding `CCN(CC)CCCC(C)Nc1ccnc2cc(Cl)ccc12` (centres unmarked) [Compound 11, Chloroquine phosphate], the “% Reduction in viral plaques” value in the assay with SARS-CoV-2 [1] (41.5 μM, Vero cells) is on record as 63.2%; with SARS-CoV-2 [1] (83 μM, Vero cells), 100%.

As for `C[C@@H]1C[C@H]2[C@@H]3CCC4=CC(=O)C=C[C@]4(C)[C@@]3(F)[C@@H](O)C[C@]2(C)[C@@]1(O)C(=O)CO` [Compound 12, Dexamethasone], the “% Reduction in viral plaques” value in the assay with SARS-CoV-2 [1] (83 μM, Vero cells) stood at 77.27%. Further, the “Relative STD saturation, Ha-6” value in assay [3] (compound 12, highest STD integral, reference) stood at 100%. Further, in assay [3] (compound 12, relative to Ha-6), the “Relative STD saturation, Ha-7” value amounted to 58.8%; the “Relative STD saturation, Hb-6” value worked out at 54.8%; the “Relative STD saturation, Hb-7” value worked out at 18.77%; the “Relative STD saturation, methyl H3–19” value was 4.13%. In addition, the “Modulation of Tm of M^pro” value in assay [4] (setting [6]) is “+2.9 °C”.

Turning to `CCC(CC)COC(=O)[C@H](C)N[P@](=O)(OC[C@H]1O[C@@](C#N)(c2ccc3c(N)ncnn23)[C@H](O)[C@@H]1O)Oc1ccccc1` [Compound 13, Remdesivir], the “% Reduction in viral plaques” value in the assay on SARS-CoV-2 [1] (83 μM, Vero cells) was 81–88%. In addition, in assay [3] (compound 13, highest STD integral, reference), the “Relative STD saturation, H-37” value turned out to be 100%. Besides, in assay [3] (compound 13, relative to H-37), the “Relative STD saturation, H-18/H-22” value was determined as 64.95%; the “Relative STD saturation, H-19/H-21” value is recorded as 69.88%; the “Relative STD saturation, H-20” value is on record as 55.82%; the “Relative STD saturation, H-34” value is listed as 78.86%. Besides, in assay [3] (compound 13, relative to H-37), the “Relative STD saturation, H-35” value was found to be 80.79%.
